Test results from ChEMBL document CHEMBL4680202, “Development, synthesis and biological investigation of a novel class of potent PC-PLC inhibitors” (Eur J Med Chem, 2020).

Legend:
[1] = system: Bacillus cereus; test: Inhibition of Bacillus cereus PC-PLC assessed as residual activity at 10 uM using phosphatidylcholine as substrate measured after 1 hr by horseradish peroxidase/alkaline phosphatase/choline oxidase-coupled amplex red reagent based fluorescence assay relative to control
[2] = Inhibition of Bacillus cereus PC-PLC using phosphatidylcholine as substrate measured after 1 hr by horseradish peroxidase/alkaline phosphatase/choline oxidase-coupled amplex red reagent based fluorescence assay
[3] = system: MDA-MB-231; test: Cytotoxicity against human MDA-MB-231 cells assessed as reduction in cell proliferation measured at 50 ug/ml measured after 48 to 72 hrs by trypan blue exclusion assay relative to control; type: functional; set-up: scale not given: the % may be the effect or the level left; conditions: dose 50 µg/ml; time 48-72 hrs

Row | SMILES | Activity [1] | IC50 [2] | Ki [2] | Activity [3]
1 | O=C(O)c1cc(NCc2cccc(Cl)c2)ccc1N1CCOCC1 | 10.7% | 3.6 µM |  | 
2 | S=C([S-])OC1CC2CC1C1CCCC21.[K+] (centres undefined) | 40.3% | 8.08 µM | 6.4 µM | 60%
3 | Fc1ccccc1CNc1ccc(N2CCOCC2)cc1 | 0% | 1.06 µM |  | 
4 | Clc1ccc(CNc2ccc(N3CCOCC3)cc2)cc1 | 12.9% |  |  | 
